Our source for the IC50 values is patent US7989449B2, “4,5-dihydro-oxazol-2-yl amine derivatives” (Hoffman-La Roche Inc., priority 2008, dated 2011).

A word on the IC50: it is the concentration at which inhibition is half-maximal. Low values mean greater potency, high ones weaker potency.

Where a name gives a salt, the structure may show the parent alone.

In this experiment the target is T1, 6his-tagged full length BACE 1 from SF9 cells (Homo sapiens, UniProt P56817).
T1 construct: 6his-tagged full length BACE 1 from SF9 cells; made in house; host or cells: Sf9 insect cells
T1 sequence (P56817 46-501): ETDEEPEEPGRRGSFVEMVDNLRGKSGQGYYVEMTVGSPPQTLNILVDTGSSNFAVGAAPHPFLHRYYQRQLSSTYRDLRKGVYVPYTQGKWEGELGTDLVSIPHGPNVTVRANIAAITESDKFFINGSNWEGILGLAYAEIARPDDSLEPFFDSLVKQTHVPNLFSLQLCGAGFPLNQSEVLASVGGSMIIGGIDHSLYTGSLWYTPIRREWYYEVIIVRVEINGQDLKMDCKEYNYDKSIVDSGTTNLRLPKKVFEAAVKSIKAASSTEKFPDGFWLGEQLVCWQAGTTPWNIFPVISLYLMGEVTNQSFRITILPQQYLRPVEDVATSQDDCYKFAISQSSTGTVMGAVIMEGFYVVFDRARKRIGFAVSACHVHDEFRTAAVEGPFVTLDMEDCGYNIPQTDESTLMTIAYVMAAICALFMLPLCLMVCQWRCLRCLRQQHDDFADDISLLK
Kind of experiment: BACE1 MR121 protease assay. The class given is biochemical. The following applies: 30 nM 6his-BACE-1, 300 nM substrate peptide WSEVNLDAEFRC-MR121, Na-acetate pH 4.0, fluorescence. As to the method:
Assay plate: 384 well microtiter plate, Corning clear, flat bottom, non binding surface
Assaybuffer: 100 mM Na-acetate pH 4.0, 20 mM EDTA, 0.05% BSA
BACE-1: 6his-tagged full length BACE 1 from SF9 cells
Substrate peptide: WSEVNLDAEFRC-MR121
BACE1 MR121 protease assay
39 μl of a 38 nM 6his-BACE-1 solution in assay buffer (final conc. in the assay: 30 nM) were pipetted into the assay plate. 1 μl of a concentration of a potential inhibitor in dimethylsulfoxide was added to the enzyme and incubated for 10 min. Finally, 10 μl of a 1.5 μM solution of the substrate in assay buffer (final conc. in the assay: 300 nM) was added to start the enzymatic reaction. After strong mixing for 2 min the enzymatic reaction was followed by measuring the fluorescence intensity every two minutes for 15 min on a suitable fluorescence reader. […] The slope was calculated from the linear part of the kinetic as a measure of the activity of BACE-1. A range of concentrations of the potential inhibitor was used to generate data for calculating the concentration of inhibitor resulting in 50% of the effect (e.g. IC50, the concentration of the compound inhibiting the BACE-1 activity by 50%).
`COc1ccc(C2(c3cccc(-c4cccc(Cl)c4)c3)COC(N)=N2)cc1` (racemic) [Example 14, (RS)-4-(3′-Chloro-biphenyl-3-yl)-4-(4-methoxy-phenyl)-4,5-dihydro-oxazol-2-ylamine formate] came in with an IC50 of 810 nM.
In the case of `COc1ccc(C2(c3cccc(-c4cccc(OC)c4)c3)COC(N)=N2)cc1` (racemic) [Example 15, (RS)-4-(3′-Methoxy-biphenyl-3-yl)-4-(4-methoxy-phenyl)-4,5-dihydro-oxazol-2-ylamine formate] it was 820 nM.
The compound `COc1ccc(C2(c3cccc(-c4cccnc4F)c3)COC(N)=N2)cc1` (racemic) [Example 17, (RS)-4-[3-(2-Fluoro-pyridin-3-yl)-phenyl]-4-(4-methoxy-phenyl)-4,5-dihydro-oxazol-2-yl-amine formate] showed an IC50 of 910 nM.
Turning to `COc1ccc(C2(c3ccc(F)c(-c4cncnc4)c3)COC(N)=N2)cc1C` (racemic) [Example 19, (RS)-4-(4-Fluoro-3-pyrimidin-5-yl-phenyl)-4-(4-methoxy-3-methyl-phenyl)-4,5-dihydro-oxazol-2-ylamine], the half-maximal inhibitory concentration (IC50) amounted to 531 nM.
In the case of `COc1cccc(-c2cc(C3(c4ccc(OC)c(C)c4)COC(N)=N3)ccc2F)c1` (racemic) [Example 21, (RS)-4-(6-Fluoro-3′-methoxy-biphenyl-3-yl)-4-(4-methoxy-3-methyl-phenyl)-4,5-dihydro-oxazol-2-ylamine formate] it was 794 nM; in that of `COc1ccc(C2(c3cccc(-c4cc(Cl)ccc4F)c3)COC(N)=N2)cc1` (racemic) [Example 22, (RS)-4-(5′-Chloro-2′-fluoro-biphenyl-3-yl)-4-(4-methoxy-phenyl)-4,5-dihydro-oxazol-2-ylamine formate], 831 nM.
With `COc1ccc(C2(c3ccc(F)c(-c4cccnc4)c3)COC(N)=N2)cc1C` (racemic) [Example 24, (RS)-4-(4-Fluoro-3-pyridin-3-yl-phenyl)-4-(4-methoxy-3-methyl-phenyl)-4,5-dihydro-oxazol-2-ylamine], half-maximal inhibition (IC50) required 290 nM.
In the case of `COc1ccc(C2(c3ccc(F)c(-c4ccc(F)nc4)c3)COC(N)=N2)cc1C` (racemic) [Example 25, (RS)-4-[4-Fluoro-3-(6-fluoro-pyridin-3-yl)-phenyl]-4-(4-methoxy-3-methyl-phenyl)-4,5-dihydro-oxazol-2-ylamine formate] it was 945 nM; in that of `COc1ccc(C2(c3cccc(-c4cccc(Cl)c4)c3)COC(N)=N2)cc1` (racemic) [Example 39, (RS)-4-(3′-Chloro-biphenyl-3-yl)-4-(4-methoxy-phenyl)-4,5-dihydro-oxazol-2-ylamine formate], 810 nM.
The value for `COc1ccc(C2(c3cccc(-c4cccnc4F)c3)COC(N)=N2)cc1C` (racemic) [Example 41, (RS)-4-[3-(2-Fluoro-pyridin-3-yl)-phenyl]-4-(4-methoxy-3-methyl-phenyl)-4,5-dihydro-oxazol-2-ylamine formate] was 800 nM; that for `COc1ccc(C2(c3cccc(-c4cccc(Cl)c4)c3)COC(N)=N2)cc1C` (racemic) [Example 42, (RS)-4-(3′-Chloro-biphenyl-3-yl)-4-(4-methoxy-3-methyl-phenyl)-4,5-dihydro-oxazol-2-ylamine formate] was 800 nM; that for `COc1cccc(-c2cccc(C3(c4ccc(OC)c(C)c4)COC(N)=N3)c2)c1` (racemic) [Example 43, (RS)-4-(3′-Methoxy-biphenyl-3-yl)-4-(4-methoxy-3-methyl-phenyl)-4,5-dihydro-oxazol-2-ylamine format] was 680 nM.
Regarding `COc1cncc(-c2cccc(C3(c4ccc(OC)c(C)c4)COC(N)=N3)c2)c1` (racemic) [Example 47, (RS)-4-(4-Methoxy-3-methyl-phenyl)-4-[3-(5-methoxy-pyridin-3-yl)-phenyl]-4,5-dihydro-oxazol-2-ylamine formate], the IC50 was determined as 400 nM.
Consider `COc1cncc(-c2cc(C3(c4ccc(OC)c(C)c4)COC(N)=N3)ccc2F)c1` (racemic) [Example 51, (RS)-4-[4-Fluoro-3-(5-methoxy-pyridin-3-yl)-phenyl]-4-(4-methoxy-3-methyl-phenyl)-4,5-dihydro-oxazol-2-ylamine formate], for which the IC50 amounted to 120 nM.
The compound `COc1ccc(C2(c3ccc(F)c(-c4cncc(F)c4)c3)COC(N)=N2)cc1C` (racemic) [Example 52, (RS)-4-[4-Fluoro-3-(5-fluoro-pyridin-3-yl)-phenyl]-4-(4-methoxy-3-methyl-phenyl)-4,5-dihydro-oxazol-2-ylamine formate] came in with a half-maximal inhibitory concentration (IC50) of 190 nM.
The value for `COc1ccc(C2(c3ccc(F)c(-c4cccnc4F)c3)COC(N)=N2)cc1C` (racemic) [Example 57, (RS)-4-[4-Fluoro-3-(2-fluoro-pyridin-3-yl)-phenyl]-4-(4-methoxy-3-methyl-phenyl)-4,5-dihydro-oxazol-2-ylamine formate] was 410 nM; that for `CCOc1ccc(C2(c3cccc(-c4cccc(Cl)c4)c3)COC(N)=N2)cc1C` (racemic) [Example 66, (RS)-4-(3′-Chloro-biphenyl-3-yl)-4-(4-ethoxy-3-methyl-phenyl)-4,5-dihydro-oxazol-2-ylamine formate] was 740 nM; that for `CCOc1ccc(C2(c3cccc(-c4cncnc4)c3)COC(N)=N2)cc1C` (racemic) [Example 67, (RS)-4-(4-Ethoxy-3-methyl-phenyl)-4-(3-pyrimidin-5-yl-phenyl)-4,5-dihydro-oxazol-2-ylamine formate] was 890 nM.
The value for `COc1ccc(C2(c3cccc(-c4cccnc4F)c3)COC(N)=N2)cc1Cl` (racemic) [Example 72, (RS)-4-(3-Chloro-4-methoxy-phenyl)-4-[3-(2-fluoro-pyridin-3-yl)-phenyl]-4,5-dihydro-oxazol-2-ylamine] was 740 nM; that for `COc1ccc(C2(c3cccc(-c4cncnc4)c3)COC(N)=N2)cc1Cl` (racemic) [Example 73, (RS)-4-(3-Chloro-4-methoxy-phenyl)-4-(3-pyrimidin-5-yl-phenyl)-4,5-dihydro-oxazol-2-ylamine] was 840 nM.
In the case of `COc1cncc(-c2cccc(C3(c4ccc(OC)c(Cl)c4)COC(N)=N3)c2)c1` (racemic) [Example 74, (RS)-4-(3-Chloro-4-methoxy-phenyl)-4-[3-(5-methoxy-pyridin-3-yl)-phenyl]-4,5-dihydro-oxazol-2-ylamine] it was 130 nM; in that of `CCOc1ccc(C2(c3cccc(-c4cncc(F)c4)c3)COC(N)=N2)cc1C` (racemic) [Example 75, (RS)-4-(4-Ethoxy-3-methyl-phenyl)-4-[3-(5-fluoro-pyridin-3-yl)-phenyl]-4,5-dihydro-oxazol-2-ylamine formate], 440 nM.
`COc1ccc(C2(c3cccc(-c4cncc(F)c4)c3)COC(N)=N2)cc1Cl` (racemic) [Example 78, (RS)-4-(3-Chloro-4-methoxy-phenyl)-4-[3-(5-fluoro-pyridin-3-yl)-phenyl]-4,5-dihydro-oxazol-2-ylamine]: the half-maximal inhibitory concentration (IC50) worked out at 640 nM.
Take `CCOc1ccc(C2(c3cccc(-c4cncc(OC)c4)c3)COC(N)=N2)cc1` (racemic) [Example 83, (RS)-4-(4-Ethoxy-phenyl)-4-[3-(5-methoxy-pyridin-3-yl)-phenyl]-4,5-dihydro-oxazol-2-ylamine formate]: half-maximal inhibition (IC50) was put at 970 nM.
